From US6759207B2, “Fluorogenic or fluorescent reporter molecules and their applications for whole-cell fluorescence screening assays for caspases and other enzymes and the use thereof” (Cytovia, Inc., priority 1997, dated 2004) come the findings set out here.

For data set [1], the system named is HL-60 cells. Kind of data set: Staining of apoptotic HL-60 cells by caspase-3 substrate (whole-cell assay, microscopy). Type of data set: cell-based. Here is the method: (§1) The ability of N-Ac-DEVD-N′-octyloxycarbonyl-R110 SEQ ID NO:5 to detect caspase activation in intact cells was tested using apoptotic HL-60 and Jurkat cells. These whole-cell assays were carried out in two stages: 1) induction of apoptosis; 2) incubation with the substrate. For HL-60 cells, apoptosis was induced by treatment with 10 μg/ml vinblastine for 4 hours. Control samples were treated with DMSO. For Jurkat cells, apoptosis was induced by treatment with 500 ng/ml agonistic antiFas antibody for 2 hours. Control samples were treated with PBS. Following apoptosis induction, the cells were incubated with 50 μM N-Ac-DEVD-N′-octyloxycarbonyl-R110 SEQ ID NO:5 in caspase assay buffer (40 mM PIPES, pH 7.4; 100 mM NaCl; 10% sucrose; 1 mM EDTA; 10 mM DTT). The cells were than transferred to a glass microslide and viewed by epifluorescent illumination on a Nikon inverted microscope.

Data set [2] concerns the target T1, recombinant human caspase-3 (Homo sapiens, UniProt P42574).
T1 sequence (P42574 29-175 limits assumed): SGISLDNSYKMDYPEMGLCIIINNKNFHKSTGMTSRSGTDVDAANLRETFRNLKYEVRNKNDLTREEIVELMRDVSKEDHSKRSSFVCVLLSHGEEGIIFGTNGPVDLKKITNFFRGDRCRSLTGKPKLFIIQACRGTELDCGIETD
T1 sequence (P42574 176-277 limits assumed): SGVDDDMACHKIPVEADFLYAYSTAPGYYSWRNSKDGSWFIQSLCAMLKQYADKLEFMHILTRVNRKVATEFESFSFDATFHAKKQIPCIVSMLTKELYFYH
Kind of data set: Cleavage of caspase-3 substrates by recombinant human caspase-3. Type of data set: biochemical. The note with it: for Cleavage by Caspase-3: 10 μM or 50 μM substrate, 37° C. The procedure:
(§2) The caspase substrates were assayed by recombinant caspase-3 and by lysates prepared from apoptotic HL-60 cells. The assays were carried out at 37° C. in 96-well plates in a 100 μL incubation containing 30 μL of caspase-3 preparation or cell lysate, 10 μM or 50 μM of the substrate, and caspase assay buffer (40 mM 1,4-piperazinebis(ethansulfonic acid) (PIPES, Aldrich Chemical Company) pH 7.2; 100 mM NaCl; 10% sucrose; 0.1% CHAPS; 1 mM EDTA; 10 mM DTT). At the end of the incubation period, the fluorescence was measured on a Bio-Tek FL500 fluorescence microplate reader using excitation and emission wavelengths of 485 and 530 nm, respectively. Two different controls were run: 1) an enzyme blank consisting of samples containing substrate, but without enzyme or cell lysate; 2) an inhibitor control, consisting of samples which contained the caspase inhibitor, Ac-DEVD-CHO (f.c., 10 μM).

Data set [3] relates to apoptotic HL-60 cell lysates. Put plainly: Cleavage of caspase-3 substrates by apoptotic HL-60 cell lysates. The format is biochemical. Particulars: 10 μM or 50 μM substrate, 37° C., vinblastine treated HL-60 cell lysates. The procedure:
as §2

Data set [4] concerns Jurkat cells. Kind of data set: Staining of apoptotic Jurkat cells by caspase-3 substrate (whole-cell assay, microscopy). Type of data set: cell-based. Particulars: 50 μM substrate. The procedure:
as §1

The test system of data set [5] is Jurkat cells. Kind of data set: Cleavage of caspase-3 substrate by whole apoptotic Jurkat cells (plate reader). Type of data set: cell-based. The procedure: In order to quantitate the cleavage of N-Ac-[…]-N-octyloxycarbonyl-R110 SEQ ID NO:5 by whole cells, an assay was performed in which the fluorescent signal generated from this substrate by apoptotic Jurkat cells was measured in a spectrofluorometric plate reader. Jurkat cells were incubated for varying times in 96-well plates with 500 ng/ml antiFas antibody to induce apoptosis. Control cells were incubated with PBS. At the end of the treatment period, the cells were harvested, centrifuged in 1.5 ml tubes and resuspended in 25 μL of medium containing 1% FBS. 25 μL of caspase buffer containing 50 μM N-Ac-DEVD-N′-octyloxycarbonyl R110 SEQ ID NO:5 was added, and the cells were incubated for one hour. At the end of the incubation period, three 5 μL aliquots from each time point were placed in 96-well plates and the fluorescence was measured at excitation/emission wavelength of 485/530 nm. […] However, cells treated with antiFas gave a detectable fluorescent signal at about one hour after apoptosis induction, and the signal continued to increase up to the 2 hour timepoint, with a signal to background ratio of about 7.

In data set [6] the test system is HL-60 cells. Kind of data set: Uptake and cleavage of aminopeptidase substrate by HL-60 cells. The format is cell-based. Particulars: 10 μM substrate, 3 hours at 37° C.; for fluorescence of cells under microscope: FIGS. 7A-B; for Counts/μg protein: excitation 485 nm, emission 525 nm. Here is the method:
HL-60 cells were placed in 5 ml of Iscove's medium (without serum or phenol-red) containing 10 μM N-G-N′-octyloxycarbonyl-R110 or 10 μM N-Z-G-N-octyloxycarbonyl-R110. Three million HL-60 cells were incubated for 3 hours at 37° C. in a CO2 incubator, recovered by centrifugation, and washed in 50 μL of ice-cold medium. The cells were re-centrifuged and the final pellet was resuspended in 50 μL of fresh medium. Aliquots of each cell suspension were placed in a microtiter 96-well plate and read on a Wallac 1420 microplate reader with excitation wavelength at 485 nm, emission wavelength at 525 nm. Aliquots of each cell suspension were also placed on microslides and viewed on a Nikon inverted microscope with epifluorescent illumination. […] There was no signal from the cells incubated with 10 μM N-Z-G-N′-octyloxycarbonyl-R110.

The test system of data set [7] is HL-60 cell lysates (aminopeptidases). Kind of data set: Cleavage of aminopeptidase substrate by HL-60 cell lysates (microtiter plate assay). Type of data set: biochemical. Particulars: FIG. 6. The procedure:
Aminopeptidases are present in many cells and sequentially remove unblocked amino acid residues from peptides, starting from the N-terminus. Peptides with blocked amino termini are not cleaved. HL-60 lysates were prepared by homogenizing HL-60 cells in caspase buffer, and the ability of these lysates to cleave N-Z-G-N′-octyloxycarbonyl R110 and N-G-N′-octyloxycarbonyl-R110 was tested in a microtiter plate assay.

Data set [8] can be described thus: Fluorescence and stability of N-acetyl-Rhodamine 110 compared to Rhodamine 110 (fluorometric assay). The format is physicochemical. Here is the method: The activities of Rhodamine 110 and N-acetyl-Rhodamine 110 as fluorescent moieties for synthetic substrates were measured in a fluorometric assay. The fluorescent signal is read in a spectrofluorometer or in a fluorometric microtiter plate reader at excitation wavelength of 485 and emission 530. Using this assay, the relative fluorescent values were determined for the two fluorescent moieties.
Fluorescence was measured using the following buffer conditions: 100 mM HEPES pH 7.5, with 10% sucrose, 1% CHAPS, 5 mM glutathione, and 1-200 nM test compound. The assay for stability was typically carried out at 37° C. for 2 days.

The mark [9] stands for this setting: listed as N-Z-EVD-N′-Ethoxycarbonyl-R110.

`CC(=O)N[C@@H](CC(=O)O)C(=O)N[C@@H](CCC(=O)O)C(=O)N[C@H](C(=O)N[C@H](C=O)CC(=O)O)C(C)C` [Ac-DEVD-CHO, reference compound]: in data set [1] (50 μM Ac-DEVD-CHO, substrate 50 μM N-Ac-DEVD-N′-octyloxycarbonyl-R110), the “fluorescent signal of vinblastine-treated HL-60 cells with inhibitor added during the assay stage” value is on record as “almost no fluorescent signal”.

Take `CCCCCCOC(=O)Nc1ccc2c(c1)Oc1cc(NC(=O)[C@H](CC(=O)O)NC(=O)[C@@H](NC(=O)[C@H](CCC(=O)O)NC(=O)[C@H](CC(=O)O)NC(C)=O)C(C)C)ccc1C21OC(=O)c2ccccc21` (stereo partly drawn) [N-Ac-DEVD-N′-hexyloxycarbonyl-R110, N-(Ac-Asp-Glu-Val-Asp)-N′-hexyloxycarbonyl-Rhodamine-110]: the “Cleavage by Caspase-3” value in data set [2] is “Good”. The “Cleavage by Apoptotic Lysates” value in data set [3] is recorded as “Good”.

Regarding `CCCCCCCCOC(=O)Nc1ccc2c(c1)Oc1cc(NC(=O)[C@H](CC(=O)O)NC(=O)[C@@H](NC(=O)[C@H](CCC(=O)O)NC(=O)[C@H](CC(=O)O)NC(C)=O)C(C)C)ccc1C21OC(=O)c2ccccc21` (stereo partly drawn) [N-Ac-DEVD-N′-octyloxycarbonyl-R110, N-(Ac-Asp-Glu-Val-Asp)-N′-octyloxycarbonyl-Rhodamine 110], in data set [2], the “Cleavage by Caspase-3” value was “Good”. Besides, the “staining of antiFas-treated Jurkat cells” value in data set [4] (500 ng/ml agonistic antiFas antibody for 2 hours) is on record as “intense staining”. Besides, in data set [4] (PBS-treated), the “staining of control Jurkat cells” value was “only light staining”. For the same molecule, the “signal to background ratio” value in data set [5] (antiFas-treated Jurkat cells, 2 hour timepoint, 485/530 nm) was “about 7”. The “fluorescent signal of PBS-treated cells” value in data set [5] (control Jurkat cells) is listed as “small fluorescent signal which did not increase”. Besides, the “staining of vinblastine-treated HL-60 cells” value in data set [1] (50 μM substrate, apoptosis induced by 10 μg/ml vinblastine for 4 hours) is on record as “intensely stained”. The “staining of DMSO-treated HL-60 cells” value in data set [1] (50 μM substrate, control cells) is “some staining”. In addition, the “Cleavage by Apoptotic Lysates” value in data set [3] is reported as “Good”.

As for `Br.CCCCCCCCOC(=O)Nc1ccc2c(c1)Oc1cc(NC(=O)CN)ccc1C21OC(=O)c2ccccc21` (stereo not shown) [N-G-N′-octyloxycarbonyl-R110, N-Gly-N′-octyloxycarbonyl-Rhodamine-110 HBr], in data set [6], the “signal from cells (microplate reader)” value is “showed signal”, the “fluorescence of cells under microscope” value was “showed fluorescence under microscope” and the Counts/μg protein is reported as 12.98 Counts/μg protein. For the same molecule, the “cleavage by HL-60 cell lysates” value in data set [7] is given as “readily cleaved”.

For the molecule `CCOC(=O)Nc1ccc2c(c1)Oc1cc(NC(=O)[C@H](CC(=O)O)NC(=O)[C@@H](NC(=O)[C@H](CCC(=O)O)NC(=O)[C@H](CC(=O)O)NC(=O)OCc3ccccc3)C(C)C)ccc1C21OC(=O)c2ccccc21` (stereo partly drawn) [N-Z-DEVD-N′-ethoxycarbonyl-R110, N-(Cbz-Asp-Glu-Val-Asp)-N′-ethoxycarbonyl-Rhodamine 110], in data set [2], the “Cleavage by Caspase-3” value was “Good”. For the same molecule, the “Cleavage by Apoptotic Lysates” value in data set [3] is recorded as “Good”.

As for `CCOC(=O)Nc1ccc2c(c1)Oc1cc(NC(=O)C(CC(=O)O)NC(=O)C(NC(=O)C(CCC(=O)O)NC(=O)OCc3ccccc3)C(C)C)ccc1C21OC(=O)c2ccccc21` (stereo not shown) [N-Z-EVD-N′-ethoxycarbonyl-R110], the “Cleavage by Caspase-3” value in data set [2] is “Fair”; in data set [2] (setting [9]), “cleaved efficiently”. Besides, the results for the “Cleavage by Apoptotic Lysates” value in data set [3] and in data set [3] (setting [9]) were “Fair” and “cleaved efficiently”, respectively.

With `CCCCCCCCOC(=O)Nc1ccc2c(c1)Oc1cc(NC(=O)CNC(=O)OCc3ccccc3)ccc1C21OC(=O)c2ccccc21` (stereo not shown) [N-Z-G-N′-octyloxycarbonyl-R110, N-[Z-Gly]-N′-octyloxycarbonyl-Rhodamine-110], in data set [6], the “signal from cells (microplate reader)” value is reported as “no signal”, the “fluorescence of cells under microscope” value is “no fluorescence signal was observed” and the Counts/μg protein was 0 Counts/μg protein. Further, the “cleavage by HL-60 cell lysates” value in data set [7] is given as “no signal was generated”.

In the case of `CCOC(=O)Nc1ccc2c(c1)Oc1cc(NC(=O)[C@H](CC(=O)O)NC(=O)[C@@H](NC(=O)OCc3ccccc3)C(C)C)ccc1C21OC(=O)c2ccccc21` (stereo partly drawn) [N-Z-VD-N′-ethoxycarbonyl-R110, N-(Cbz-Val-Asp)-N′-Ethoxycarbonyl-Rhodamine 110], the “Cleavage by Caspase-3” value in data set [2] was “the signal was low and Poor”. In addition, the “amount of recombinant caspase-3 required for cleavage relative to tri- and tetrapeptide substrates” value in data set [2] (FIG. 2A) is 50 fold. Moreover, the “Cleavage by Apoptotic Lysates” value in data set [3] is on record as “Poor”.

Consider `CC(=O)Nc1ccc2c(c1)Oc1cc(N)ccc1C21OC(=O)c2ccccc21` (stereo not shown) [N-acetyl Rhodamine 110, N-Acetyl-Rhodamine 110], for which the “stability and efficiency as fluorescent indicator” value in data set [8] (37° C. for 2 days) is “stable and efficient fluorescent indicator”. Moreover, the “ratio of fluorescent signal (Rhodamine 110/N-acetyl Rhodamine 110)” value was determined as 10.1 in data set [8] (after two days incubation at 37° C.) and 10.2 in data set [8] (time zero, excitation 485, emission 530, HEPES pH 7.5 buffer).
